Assay: Safety (adverse events, NCI CTCAE v4.0), dose-escalation phase
[1] = dose-escalation QD × 3dQW 6–20 mg
[2] = dose-escalation QD × 5dQW 7–13 mg

Protocol: Patients who received ≥1 dose of sapanisertib were included in the safety population. […] Adverse events (AEs) were assessed using the National Cancer Institute Common Terminology Criteria for Adverse Events, v4.0. Patients were provided with a home blood-glucose meter to monitor their fasting predose blood-glucose measurements to assess hyperglycaemia as an on-target AE and PD marker.

CC(C)n1nc(-c2ccc3oc(N)nc3c2)c2c(N)ncnc21 [Sapanisertib]
On-study deaths within 30 days of last dose (both phases): 7 | Acute kidney injury, treatment-related AE (dose-escalation QD 2–7 mg): 1 (3) n (%) | Anaemia, treatment-related AE (dose-escalation QD 2–7 mg): 3 (10) n (%) | Any AE (dose-escalation QD 2–7 mg): 31 (100) n (%) | Any AE resulting in dose modification/interruption (dose-escalation QD 2–7 mg): 22 (71) n (%) | Any AE resulting in treatment discontinuation (dose-escalation QD 2–7 mg): 11 (35) n (%) | Any SAE (dose-escalation QD 2–7 mg): 13 (42) n (%) | Any grade ≥3 AE (dose-escalation QD 2–7 mg): 19 (61) n (%) | Any treatment-related AE (dose-escalation QD 2–7 mg): 31 (100) n (%) | Any treatment-related SAE (dose-escalation QD 2–7 mg): 4 (13) n (%) | Any treatment-related grade ≥3 AE (dose-escalation QD 2–7 mg): 14 (45) n (%) | Asthenia, treatment-related AE (dose-escalation QD 2–7 mg): 6 (19) n (%) | Asthenia, treatment-related grade ≥3 AE (dose-escalation QD 2–7 mg): 1 (3) n (%) | Blood creatinine increased, treatment-related AE (dose-escalation QD 2–7 mg): 7 (23) n (%) | Decreased appetite, treatment-related AE (dose-escalation QD 2–7 mg): 11 (35) n (%) | Dehydration, treatment-related AE (dose-escalation QD 2–7 mg): 3 (10) n (%) | Dehydration, treatment-related grade ≥3 AE (dose-escalation QD 2–7 mg): 0 (0) n (%) | Diarrhoea, treatment-related AE (dose-escalation QD 2–7 mg): 11 (35) n (%) | Diarrhoea, treatment-related grade ≥3 AE (dose-escalation QD 2–7 mg): 1 (3) n (%) | Dry mouth, treatment-related AE (dose-escalation QD 2–7 mg): 5 (16) n (%) | Dysgeusia, treatment-related AE (dose-escalation QD 2–7 mg): 8 (26) n (%) | Dyspepsia, treatment-related AE (dose-escalation QD 2–7 mg): 1 (3) n (%) | Fatigue, treatment-related AE (dose-escalation QD 2–7 mg): 8 (26) n (%) | Fatigue, treatment-related grade ≥3 AE (dose-escalation QD 2–7 mg): 0 (0) n (%) | Headache, treatment-related AE (dose-escalation QD 2–7 mg): 0 (0) n (%) | Hypercholesterolemia, treatment-related AE (dose-escalation QD 2–7 mg): 5 (16) n (%) | Hyperglycaemia, treatment-related AE (dose-escalation QD 2–7 mg): 25 (81) n (%) | Hyperglycaemia, treatment-related grade ≥3 AE (dose-escalation QD 2–7 mg): 6 (19) n (%) | Hypophosphatemia, treatment-related AE (dose-escalation QD 2–7 mg): 0 (0) n (%) | Hypophosphatemia, treatment-related grade ≥3 AE (dose-escalation QD 2–7 mg): 0 (0) n (%) | Lymphopenia, treatment-related grade ≥3 AE (dose-escalation QD 2–7 mg): 2 (6) n (%) | Nausea, treatment-related AE (dose-escalation QD 2–7 mg): 13 (42) n (%) | Nausea, treatment-related grade ≥3 AE (dose-escalation QD 2–7 mg): 0 (0) n (%) | On-study deaths (dose-escalation QD 2–7 mg): 1 (3) n (%) | Pruritus generalised, treatment-related AE (dose-escalation QD 2–7 mg): 8 (26) n (%) | Pruritus generalised, treatment-related grade ≥3 AE (dose-escalation QD 2–7 mg): 2 (6) n (%) | Pruritus, treatment-related AE (dose-escalation QD 2–7 mg): 2 (6) n (%) | Rash maculo-papular, treatment-related AE (dose-escalation QD 2–7 mg): 3 (10) n (%) | Rash maculo-papular, treatment-related grade ≥3 AE (dose-escalation QD 2–7 mg): 2 (6) n (%) | Rash, treatment-related AE (dose-escalation QD 2–7 mg): 8 (26) n (%) | Rash, treatment-related grade ≥3 AE (dose-escalation QD 2–7 mg): 2 (6) n (%) | Stomatitis (includes oropharyngeal pain and mucosal inflammation), treatment-related AE (dose-escalation QD 2–7 mg): 11 (35) n (%) | Stomatitis, treatment-related grade ≥3 AE (dose-escalation QD 2–7 mg): 0 (0) n (%) | Thrombocytopenia, treatment-related grade ≥3 AE (dose-escalation QD 2–7 mg): 2 (6) n (%) | Vomiting, treatment-related AE (dose-escalation QD 2–7 mg): 8 (26) n (%) | Weight decreased, treatment-related AE (dose-escalation QD 2–7 mg): 1 (3) n (%) | Acute kidney injury, treatment-related AE [1]: 0 (0) n (%) | Anaemia, treatment-related AE [1]: 1 (3) n (%) | Any AE [1]: 33 (100) n (%) | Any AE resulting in dose modification/interruption [1]: 21 (64) n (%) | Any AE resulting in treatment discontinuation [1]: 7 (21) n (%) | Any SAE [1]: 17 (52) n (%) | Any grade ≥3 AE [1]: 25 (76) n (%) | Any treatment-related AE [1]: 32 (97) n (%) | Any treatment-related SAE [1]: 9 (27) n (%) | Any treatment-related grade ≥3 AE [1]: 19 (58) n (%) | Asthenia, treatment-related AE [1]: 10 (30) n (%) | Asthenia, treatment-related grade ≥3 AE [1]: 4 (12) n (%) | Blood creatinine increased, treatment-related AE [1]: 2 (6) n (%) | Decreased appetite, treatment-related AE [1]: 17 (52) n (%) | Dehydration, treatment-related AE [1]: 1 (3) n (%) | Dehydration, treatment-related grade ≥3 AE [1]: 1 (3) n (%) | Diarrhoea, treatment-related AE [1]: 13 (39) n (%) | Diarrhoea, treatment-related grade ≥3 AE [1]: 0 (0) n (%) | Dry mouth, treatment-related AE [1]: 2 (6) n (%) | Dysgeusia, treatment-related AE [1]: 4 (12) n (%) | Dyspepsia, treatment-related AE [1]: 1 (3) n (%) | Fatigue, treatment-related AE [1]: 12 (36) n (%) | Fatigue, treatment-related grade ≥3 AE [1]: 0 (0) n (%) | Headache, treatment-related AE [1]: 3 (9) n (%) | Hypercholesterolemia, treatment-related AE [1]: 4 (12) n (%) | Hyperglycaemia, treatment-related AE [1]: 22 (67) n (%) | Hyperglycaemia, treatment-related grade ≥3 AE [1]: 7 (21) n (%) | Hypophosphatemia, treatment-related AE [1]: 5 (15) n (%) | Hypophosphatemia, treatment-related grade ≥3 AE [1]: 3 (9) n (%) | Lymphopenia, treatment-related grade ≥3 AE [1]: 2 (6) n (%) | Nausea, treatment-related AE [1]: 23 (70) n (%) | Nausea, treatment-related grade ≥3 AE [1]: 2 (6) n (%) | On-study deaths [1]: 2 (6) n (%) | Pruritus generalised, treatment-related AE [1]: 6 (18) n (%) | Pruritus generalised, treatment-related grade ≥3 AE [1]: 1 (3) n (%) | Pruritus, treatment-related AE [1]: 1 (3) n (%) | Rash maculo-papular, treatment-related AE [1]: 1 (3) n (%) | Rash maculo-papular, treatment-related grade ≥3 AE [1]: 0 (0) n (%) | Rash, treatment-related AE [1]: 7 (21) n (%) | Rash, treatment-related grade ≥3 AE [1]: 0 (0) n (%) | Stomatitis (includes oropharyngeal pain and mucosal inflammation), treatment-related AE [1]: 23 (70) n (%) | Stomatitis, treatment-related grade ≥3 AE [1]: 5 (15) n (%) | Thrombocytopenia, treatment-related grade ≥3 AE [1]: 0 (0) n (%) | Vomiting, treatment-related AE [1]: 18 (55) n (%) | Weight decreased, treatment-related AE [1]: 2 (6) n (%) | Acute kidney injury, treatment-related AE [2]: 0 (0) n (%) | Anaemia, treatment-related AE [2]: 0 (0) n (%) | Any AE [2]: 22 (100) n (%) | Any AE resulting in dose modification/interruption [2]: 12 (55) n (%) | Any AE resulting in treatment discontinuation [2]: 6 (27) n (%) | Any SAE [2]: 10 (45) n (%) | Any grade ≥3 AE [2]: 14 (64) n (%) | Any treatment-related AE [2]: 21 (95) n (%) | Any treatment-related SAE [2]: 4 (18) n (%) | Any treatment-related grade ≥3 AE [2]: 8 (36) n (%) | Asthenia, treatment-related AE [2]: 9 (41) n (%) | Asthenia, treatment-related grade ≥3 AE [2]: 3 (14) n (%) | Blood creatinine increased, treatment-related AE [2]: 0 (0) n (%) | Decreased appetite, treatment-related AE [2]: 7 (32) n (%) | Dehydration, treatment-related AE [2]: 0 (0) n (%) | Dehydration, treatment-related grade ≥3 AE [2]: 0 (0) n (%) | Diarrhoea, treatment-related AE [2]: 8 (36) n (%) | Diarrhoea, treatment-related grade ≥3 AE [2]: 0 (0) n (%) | Dry mouth, treatment-related AE [2]: 2 (9) n (%) | Dysgeusia, treatment-related AE [2]: 4 (18) n (%) | Dyspepsia, treatment-related AE [2]: 0 (0) n (%) | Fatigue, treatment-related AE [2]: 7 (32) n (%)

Reference: article PMC7686313, “Phase 1 study of mTORC1/2 inhibitor sapanisertib (TAK-228) in advanced solid tumours, with an expansion phase in renal, endometrial or bladder cancer” (British Journal of Cancer, 2020)
